Data set [1] deals with T1, Solute carrier organic anion transporter family member 3A1 (SLCO3A1/OATP3A1) (Homo sapiens, UniProt Q9UIG8).
T1 sequence (Q9UIG8 whole entry): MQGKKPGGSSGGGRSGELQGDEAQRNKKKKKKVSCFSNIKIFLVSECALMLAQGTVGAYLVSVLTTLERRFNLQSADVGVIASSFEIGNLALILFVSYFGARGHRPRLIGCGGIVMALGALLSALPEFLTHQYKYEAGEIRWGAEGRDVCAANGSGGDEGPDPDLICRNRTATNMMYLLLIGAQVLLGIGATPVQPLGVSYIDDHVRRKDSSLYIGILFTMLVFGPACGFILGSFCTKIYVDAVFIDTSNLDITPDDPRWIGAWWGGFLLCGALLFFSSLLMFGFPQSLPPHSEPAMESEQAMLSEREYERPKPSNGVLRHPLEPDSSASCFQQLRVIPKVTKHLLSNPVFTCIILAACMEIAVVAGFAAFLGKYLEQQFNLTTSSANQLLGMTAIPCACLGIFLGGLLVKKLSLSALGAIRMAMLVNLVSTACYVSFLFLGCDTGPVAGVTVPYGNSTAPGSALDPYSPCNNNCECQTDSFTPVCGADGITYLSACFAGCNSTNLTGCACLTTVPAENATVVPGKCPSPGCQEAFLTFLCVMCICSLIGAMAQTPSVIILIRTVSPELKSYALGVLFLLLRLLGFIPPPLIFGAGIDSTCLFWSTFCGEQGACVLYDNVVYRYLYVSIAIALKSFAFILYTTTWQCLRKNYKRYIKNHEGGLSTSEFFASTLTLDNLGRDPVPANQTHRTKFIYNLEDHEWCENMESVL
As to the kind of experiment: TP_TRANSPORTER: inhibition of PGE2 uptake (PGE2: 0.015 uM) by Prostaglandin E1 at 0.15uM in Xenopus laevis oocytes. The class given is functional, cell-based, Oocyte. Details: scale not given: the % may be the effect or the level left. Particulars: Xenopus laevis oocytes expressing OATP3A1 (SLCO3A1), probe PGE2, read-out: Activity.

The target of data set [2] is T2, Solute carrier organic anion transporter family member 3A1 (Rattus norvegicus, UniProt Q99N02).
T2 sequence (Q99N02 whole entry): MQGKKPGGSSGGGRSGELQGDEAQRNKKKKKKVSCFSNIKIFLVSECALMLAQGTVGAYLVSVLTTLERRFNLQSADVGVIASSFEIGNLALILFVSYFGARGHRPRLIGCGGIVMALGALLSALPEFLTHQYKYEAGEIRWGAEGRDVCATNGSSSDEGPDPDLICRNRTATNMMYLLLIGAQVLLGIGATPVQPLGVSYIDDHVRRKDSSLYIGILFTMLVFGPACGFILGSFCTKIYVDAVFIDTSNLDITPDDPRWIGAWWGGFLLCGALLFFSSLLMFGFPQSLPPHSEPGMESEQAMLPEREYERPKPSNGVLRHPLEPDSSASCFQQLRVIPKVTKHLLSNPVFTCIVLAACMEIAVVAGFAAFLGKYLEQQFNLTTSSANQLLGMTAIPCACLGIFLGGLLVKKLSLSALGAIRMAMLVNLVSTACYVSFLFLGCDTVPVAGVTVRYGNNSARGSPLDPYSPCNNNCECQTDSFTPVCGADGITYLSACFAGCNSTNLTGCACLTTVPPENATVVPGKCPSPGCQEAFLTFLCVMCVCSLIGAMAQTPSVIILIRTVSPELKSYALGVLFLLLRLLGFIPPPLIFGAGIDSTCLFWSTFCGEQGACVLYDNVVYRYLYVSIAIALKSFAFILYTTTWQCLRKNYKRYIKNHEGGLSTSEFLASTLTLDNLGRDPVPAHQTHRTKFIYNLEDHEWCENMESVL
As to the kind of experiment: (§1) TP_TRANSPORTER: uptake in Xenopus laevis oocytes. The conditions noted are these: oocyte. The class given is functional, cell-based.

Data set [3] has as its target T3, Solute carrier organic anion transporter family member 3A1 (Homo sapiens, UniProt Q9UIG8).
T3 sequence (Q9UIG8 whole entry): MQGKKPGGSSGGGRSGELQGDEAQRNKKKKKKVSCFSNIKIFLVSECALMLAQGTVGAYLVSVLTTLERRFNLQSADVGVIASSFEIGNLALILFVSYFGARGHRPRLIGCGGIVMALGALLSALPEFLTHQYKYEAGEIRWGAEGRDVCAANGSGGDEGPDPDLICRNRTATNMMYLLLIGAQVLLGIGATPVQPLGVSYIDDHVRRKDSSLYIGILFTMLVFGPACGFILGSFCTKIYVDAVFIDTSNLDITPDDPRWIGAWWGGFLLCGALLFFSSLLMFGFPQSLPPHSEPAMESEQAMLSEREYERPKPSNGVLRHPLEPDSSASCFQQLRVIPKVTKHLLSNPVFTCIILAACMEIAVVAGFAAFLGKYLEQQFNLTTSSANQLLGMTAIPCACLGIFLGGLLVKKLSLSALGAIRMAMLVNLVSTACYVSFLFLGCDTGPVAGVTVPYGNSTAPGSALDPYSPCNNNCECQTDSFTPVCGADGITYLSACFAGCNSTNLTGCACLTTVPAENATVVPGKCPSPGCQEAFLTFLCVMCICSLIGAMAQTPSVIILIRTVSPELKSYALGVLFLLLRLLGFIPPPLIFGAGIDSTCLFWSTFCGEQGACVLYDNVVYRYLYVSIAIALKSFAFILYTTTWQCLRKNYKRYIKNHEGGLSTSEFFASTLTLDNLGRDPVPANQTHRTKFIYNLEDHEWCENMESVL
Described as §1. It is filed as functional, cell-based. Particulars: oocyte.

Data set [4] concerns the target T3, Solute carrier organic anion transporter family member 3A1. As to the kind of experiment: TP_TRANSPORTER: inhibition of PGE2 uptake (PGE2: 0.015 uM) by Prostaglandin F2alpha at 0.15uM in Xenopus laevis oocytes. The class given is functional, cell-based. On the set-up: scale not given: the % may be the effect or the level left. The conditions noted are these: oocyte.

Data set [5] concerns the target T1, Solute carrier organic anion transporter family member 3A1 (SLCO3A1/OATP3A1). Briefly: TP_TRANSPORTER: inhibition of PGE2 uptake (PGE2: 0.015 uM) by Prostaglandin D2 at 0.15uM in Xenopus laevis oocytes. The class given is functional, cell-based, Oocyte. Details: scale not given: the % may be the effect or the level left. Particulars: Xenopus laevis oocytes expressing OATP3A1 (SLCO3A1), probe PGE2, read-out: Activity.

Data set [6] deals with T3, Solute carrier organic anion transporter family member 3A1. As to the kind of experiment: TP_TRANSPORTER: inhibition of PGE2 uptake (PGE2: 0.015 uM) by […] at 0.15uM in Xenopus laevis oocytes. The class given is functional, cell-based. On the set-up: scale not given: the % may be the effect or the level left. Particulars: oocyte.
The target in data set [7] is T1, Solute carrier organic anion transporter family member 3A1 (SLCO3A1/OATP3A1). Briefly: TP_TRANSPORTER: inhibition of PGE2 uptake (PGE2: 0.015 uM) by P-aminohippuric acid at 0.15uM in Xenopus laevis oocytes. The class given is functional, cell-based, Oocyte. On the set-up: scale not given: the % may be the effect or the level left. The conditions noted are these: Xenopus laevis oocytes expressing OATP3A1 (SLCO3A1), probe PGE2, read-out: Activity.

Substrate in data set [8]: CC/C=C\C[C@H](O)/C=C/[C@H]1[C@H](O)CC(=O)[C@@H]1C/C=C\CCCC(=O)O
Described as §1. The class given is functional, cell-based, Oocyte.

Substrate in data set [9]: CCCCC[C@H](O)/C=C/[C@H]1[C@H](O)CC(=O)[C@@H]1CCCCCCC(=O)O
The data set is described as §1. The class given is functional, cell-based, Oocyte.

`CCCCC[C@H](O)/C=C/[C@H]1[C@H](O)CC(=O)[C@@H]1CCCCCCC(=O)O` [ALPROSTADIL]: the activity at 0.15 µM in data set [1] amounted to 0%. Moreover, in data set [2], the Activity result was “substrate [+]”.

On to `CCCCC[C@H](O)/C=C/[C@H]1OC(O)C[C@H](O)[C@@H]1C/C=C\CCCC(=O)O` (stereo not given in full) [THROMBOXANE B2], for which the Activity entry in data set [3] was “is not a substrate [-]”.

Turning to `CCCCC[C@H](O)/C=C/[C@@H]1[C@@H](C/C=C\CCCC(=O)O)[C@@H](O)C[C@H]1O` [DINOPROST], the Activity was 0% in data set [4], “substrate [+]” in data set [3] and “substrate [+]” in [2].

PROSTAGLANDIN E5: in data set [2], the Activity entry was “substrate [+]”.

For the molecule `CCCCC[C@H](O)/C=C/[C@H]1C(=O)C[C@H](O)[C@@H]1C/C=C\CCCC(=O)O` [PROSTAGLANDIN D2], in data set [5], the activity at 0.15 µM turned out to be 30%. In addition, in data set [3], the Activity entry was “is not a substrate [-]”.

As for `CN(Cc1cnc2nc(N)nc(N)c2n1)c1ccc(C(=O)N[C@@H](CCC(=O)O)C(=O)O)cc1` [METHOTREXATE], in data set [3], the Activity entry was “is not a substrate [-]”.

In data set [6], PROSTAGLANDIN E4 yielded an Activity of 0%.

As to `Nc1ccc(C(=O)NCC(=O)O)cc1` [AMINOHIPPURIC ACID], in data set [7], the activity at 0.15 µM is 30%.

As for `CC#CCC(C)[C@H](O)/C=C/[C@@H]1[C@H]2C/C(=C/CCCC(=O)O)C[C@H]2C[C@H]1O` (stereo not given in full) [ILOPROST], the Activity entry in [3] is “is not a substrate [-]”.

B1: Solute carrier organic anion transporter family member 3A1 (Homo sapiens) (protein)
chain: MQGKKPGGSSGGGRSGELQGDEAQRNKKKKKKVSCFSNIKIFLVSECALMLAQGTVGAYLVSVLTTLERRFNLQSADVGVIASSFEIGNLALILFVSYFGARGHRPRLIGCGGIVMALGALLSALPEFLTHQYKYEAGEIRWGAEGRDVCAANGSGGDEGPDPDLICRNRTATNMMYLLLIGAQVLLGIGATPVQPLGVSYIDDHVRRKDSSLYIGILFTMLVFGPACGFILGSFCTKIYVDAVFIDTSNLDITPDDPRWIGAWWGGFLLCGALLFFSSLLMFGFPQSLPPHSEPAMESEQAMLSEREYERPKPSNGVLRHPLEPDSSASCFQQLRVIPKVTKHLLSNPVFTCIILAACMEIAVVAGFAAFLGKYLEQQFNLTTSSANQLLGMTAIPCACLGIFLGGLLVKKLSLSALGAIRMAMLVNLVSTACYVSFLFLGCDTGPVAGVTVPYGNSTAPGSALDPYSPCNNNCECQTDSFTPVCGADGITYLSACFAGCNSTNLTGCACLTTVPAENATVVPGKCPSPGCQEAFLTFLCVMCICSLIGAMAQTPSVIILIRTVSPELKSYALGVLFLLLRLLGFIPPPLIFGAGIDSTCLFWSTFCGEQGACVLYDNVVYRYLYVSIAIALKSFAFILYTTTWQCLRKNYKRYIKNHEGGLSTSEFFASTLTLDNLGRDPVPANQTHRTKFIYNLEDHEWCENMESVL
The term Km denotes the substrate concentration at which the rate is half of its maximum. Consider B1, for which the Michaelis-Menten constant (Km) in data set [8] turned out to be 0.0555 µM; in data set [9], 0.0485 µM.

For the origin of these results see ChEMBL document CHEMBL2074340, “Molecular characterization of human and rat organic anion transporter OATP-D” (Am J Physiol Renal Physiol, 2003).
